Measured values reported in paper PMC3004257, “Purine nucleoside phosphorylase from Schistosoma mansoni in complex with ribose-1-phosphate” (Journal of Synchrotron Radiation, 2010).

Legend:
[1] = target: T1, SmPNP (Schistosoma mansoni purine nucleoside phosphorylase) (Schistosoma mansoni, UniProt Q9BMI9); assay: X-ray crystallography, crystal soaking; settings: soaking aimed at ternary complex with R1P; base binding site
T1 construct: low-molecular-mass homotrimer
T1 sequence (Q9BMI9 1-287): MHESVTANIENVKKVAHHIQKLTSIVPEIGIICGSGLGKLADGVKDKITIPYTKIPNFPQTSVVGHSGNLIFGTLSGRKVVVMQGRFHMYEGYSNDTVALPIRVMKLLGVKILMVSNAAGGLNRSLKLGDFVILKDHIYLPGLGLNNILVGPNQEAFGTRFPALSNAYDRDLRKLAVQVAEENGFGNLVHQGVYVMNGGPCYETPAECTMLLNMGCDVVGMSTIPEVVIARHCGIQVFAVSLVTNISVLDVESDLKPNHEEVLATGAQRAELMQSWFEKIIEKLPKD

[2] = target: T1, SmPNP (Schistosoma mansoni purine nucleoside phosphorylase); assay: X-ray crystallography, crystal soaking, […] Å; format: binding; settings: 5 mM R1P soak up to 48 h, 20% PEG 1500, 15 mM sodium acetate pH 4.9 or 5.0, 20% glycerol; phosphate and ribose sites of all three subunits; acetate in base site

SMILES | X-ray crystallography, crystal soaking [1] | X-ray crystallography, crystal soaking, 2.0 Å [2]
O=c1[nH]cnc2nc[nH]c12 [hypoxanthine] | by soaking were unsuccessful, SmPNP–hypoxanthine complexes being obtained instead | –
O=P(O)(O)O[C@H]1O[C@H](CO)[C@@H](O)[C@H]1O [ribose-1-phosphate] | – | we have been able to obtain the elusive binary complex of SmPNP with R1P
